Usually Tmax stands for the time at which the peak concentration occurs. By Emax is commonly meant the size of the effect at its maximum, as opposed to the concentration needed. For orientation: IC50 means the point on the concentration scale where inhibition reaches its midpoint.

Active and inactive are the calls of the source. The rule behind the calls is not given here.

Series [1] concerns MIA PaCa-2. Nature of the series: Induction of apoptosis in human MIA PaCa-2 cells assessed as necrotic cells at 100 nM incubated for 48 hrs by Annexin V-FITC staining based flow cytometry analysis (reference value: 1.25 %). The class given is functional. In general terms: A flow cytometer gives signals particle by particle.
Series [2] can be described thus: Tmax in ICR mouse at 30 mg/kg, ip measured after 24 hrs by LC-MS/MS analysis. The class given is ADME, organism-based. The conditions noted are these: in vivo.
Series [3] deals with MIA PaCa-2. Put plainly: Induction of apoptosis in human MIA PaCa-2 cells assessed as late apoptotic cells at 30 nM incubated for 48 hrs by Annexin V-FITC staining based flow cytometry analysis (reference value: 5.69 %). The series is classed as functional.
For series [4], the system named is MIA PaCa-2. Nature of the series: Induction of apoptosis in human MIA PaCa-2 cells assessed as viable cells at 300 nM incubated for 48 hrs by Annexin V-FITC staining based flow cytometry analysis (reference value: 91.5 %). The series is classed as functional. The following applies: read-out: Activity.
Series [5] relates to von Hippel-Lindau disease tumor suppressor/GTPase KRas (Homo sapiens), P01116+P40337 [G12C]. Put plainly: PROTACactivity at VHL/KRAS G12C mutant in human NCI-H358 cells assessed as induction of protein degradation by measuring maximal efficacy incubated for 72 hrs by Western blot analysis relative to control. The series is classed as cell-based. A general note: In western blotting, separated proteins are transferred to a membrane and probed.

The test system of series [6] is NCI-H358. Nature of the series: Antiproliferative activity against human NCI-H358 cells expressing KRAS G12C mutant assessed as relative cell viability at 30 nM incubated for 72 hrs in presence of MK-2206 by CCK-8 assay. The following applies: read-out: Activity. The series is classed as functional. For orientation: Tetrazolium dyes change colour on reduction, which living cells bring about.

Series [7] deals with NCI-H358. Put plainly: Antiproliferative activity against human NCI-H358 cells expressing KRAS G12C mutant assessed as reduction of cell growth by measuring fold decrease in IC50 incubated for 72 hrs in presence of AZD4573 by CCK-8 assay. The class given is functional.
The test system of series [8] is MIA PaCa-2. Nature of the series: Antitumor activity against human MIA PaCa-2 cells xenografted in BALB/c nude mouse assessed as reduction in number of tumor foci at 10 to 30 mg/kg, ip administered for 16 days by hematoxylin and eosin staining based analysis. The class given is functional, organism-based. The following applies: dose 10-30 mg/kg, time 16.0 day.
Series [9] has as its system NCI-H358. Nature of the series: Antiproliferative activity against human NCI-H358 cells expressing KRAS G12C mutant assessed as relative cell viability at 30 nM incubated for 72 hrs in presence of selumetinib by CCK-8 assay. The conditions noted are these: read-out: Activity. The series is classed as functional.
Series [10] deals with NCI-H358. Put plainly: Induction of apoptosis in human NCI-H358 cells assessed as late apoptotic cells at 300 nM incubated for 48 hrs by Annexin V-FITC staining based flow cytometry analysis (reference value: 5.20 %). The series is classed as functional.
The test system of series [11] is von Hippel-Lindau disease tumor suppressor/GTPase KRas (Homo sapiens), P01116+P40337 [G12C]. Put plainly: PROTAC activity at VHL/KRAS G12C mutant in human NCI-H358 cells assessed as induction of protein degradation at 100 nM preincubated with AMG510 for 6 hrs followed by compound addition and measured after 48 hrs by Western blotting analysis. The class given is cell-based.

Series [12] relates to MIA PaCa-2. Put plainly: Induction of apoptosis in human MIA PaCa-2 cells assessed as late apoptotic cells at 100 nM incubated for 48 hrs by Annexin V-FITC staining based flow cytometry analysis (reference value: 5.69 %). The series is classed as functional.
In a further series the test system is NCI-H23. Put plainly: Antiproliferative activity against human NCI-H23 cells expressing KRAS G12C mutant assessed as relative cell viability at 30 nM incubated for 72 hrs by CCK-8 assay. The following applies: read-out: Activity. The series is classed as functional.
The subject of series [13] is NCI-H358. Nature of the series: Antiproliferative activity against human NCI-H358 cells expressing KRAS G12C mutant assessed as reduction of cell growth by measuring fold decrease in IC50 incubated for 72 hrs in presence of Linsitinib by CCK-8 assay. The series is classed as functional.
Series [14] concerns von Hippel-Lindau disease tumor suppressor/GTPase KRas (Homo sapiens), P01116+P40337 [G12C]. Nature of the series: Protac activity at VHL/KRAS G12C mutant in human NCI-H358 cells assessed as induction of protein degradation at 100 nM preincubated with VH032 for 6 hrs followed by compound addition and measured after 48 hrs by Western blot analysis. The class given is cell-based.

The test system is the same in series [15]. Put plainly: PROTAC activity at VHL/KRAS G12C mutant in human MIA PaCa-2 cells assessed as inhibition of Akt phosphorylation at 100 nM incubated for 1 to 8 days by Western blotting analysis. The class given is cell-based. The conditions noted are these: time 1-8 day.
Series [16] shares this test system. Nature of the series: PROTAC activity at VHL/KRAS G12C mutant in human MIA PaCa-2 cells assessed as induction of protein degradation by measuring maximal efficacy by Western blotting analysis relative to control. The class given is cell-based.
The nature of series [17]: Downregulation of KRAS G12C mutant expression in human NCI-H358 cells assessed as log2 of fold change at 200 nM incubated for 48 hrs by MS-based proteomic analysis. The class given is functional.
The test system of series [18] is NCI-H358. Put plainly: Antiproliferative activity against human NCI-H358 cells expressing KRAS G12C mutant assessed as inhibition of cell growth incubated for 72 hrs by CCK-8 assay. The class given is functional, cell-based. The following applies: NCI-H358, 72 h.
Series [19] concerns MIA PaCa-2. Put plainly: Induction of apoptosis in human MIA PaCa-2 cells assessed as early apoptotic cells at 30 nM incubated for 48 hrs by Annexin V-FITC staining based flow cytometry analysis (reference value: 1.55 %). The series is classed as functional.
Series [20] deals with NCI-H358. Nature of the series: Antiproliferative activity against human NCI-H358 cells expressing KRAS G12C mutant assessed as relative cell viability at 30 nM incubated for 72 hrs in presence of daclolisib by CCK-8 assay. The series is classed as functional. The following applies: read-out: Activity.
Series [21] deals with von Hippel-Lindau disease tumor suppressor/GTPase KRas (Homo sapiens), P01116+P40337 [G12C]. Put plainly: PROTAC activity at VHL/KRAS G12C mutant in human MIA PaCa-2 cells assessed as inhibition of ERK phosphorylation at 100 nM incubated for 1 to 8 days by Western blotting analysis. The class given is cell-based. The conditions noted are these: time 1-8 day.

Turning to `C=CC(=O)N1CCN(c2nc(=O)n(-c3c(C)ccnc3C(C)C)c3nc(-c4c(F)cccc4OCC4CCN(CCCC(=O)N[C@H](C(=O)N5C[C@H](O)C[C@H]5C(=O)NCc5ccc(-c6scnc6C)cc5)C(C)(C)C)CC4)c(F)cc23)[C@@H](C)C1`, the Activity in the series on MIA PaCa-2 [1] is recorded as 4.09%; with MIA PaCa-2 [3], 7.18%; with NCI-H358 [10] it was 14.6%; with MIA PaCa-2 [12], 13.4%; in the series on MIA PaCa-2 [19] it was 2.66%. For the same molecule, the Tmax in series [2] worked out at 1.17 h. Also, the viability at 0.3 µM in the series with MIA PaCa-2 [4] is 66.4%. Moreover, the maximal response (Emax) in series [5] and in series [16] was above 95% throughout. Further, the viability at 0.03 µM in the series with NCI-H358 [6] is 0.36%; with NCI-H358 [9], 0.31%; in the series on NCI-H23, 0.85%; in the series with NCI-H358 [20], 0.29%. Besides, the “fold change (FC)” value in the series on NCI-H358 [7] was around 6; in the series with NCI-H358 [13] it was around 4. In addition, the outcome (with MIA PaCa-2 [8]; in [15]; in series [21]) was Active. Also, the outcome in [11] and in [14] was inactive. Besides, in series [17], the log2FC is given as above 1. Moreover, in the series on NCI-H358 [18], the IC50 was 91 nM.

Values taken from ChEMBL document CHEMBL5634141 (Eur J Med Chem, 2023).
